Laboratory results reported in patent publication US9302991B2, “Arylamide derivatives as TTX-S blockers” (RaQualia Pharma Inc., priority 2010, dated 2016).

Key:
human Nav1.3 channels = molecular target: T1, human Nav1.3 channels (Homo sapiens, UniProt Q9NY46); experiment: FRET assay, human Nav1.3 (EFS on FDSS); format: cell-based; settings: HEK293 cells expressing human Nav1.3, read-out: IC50 against Nav1.3
T1 construct: expressed in transfected cells; host or cells: HEK293
Summary of the method: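 HEK293 cells expressing the channel, loaded with 10 microM CC2-DMPE then 15 microM DiSBAC2(3) plus 0.555 mM VABSC-1 in pH 7.4 HEPES buffer at room temperature. Membrane potential changes evoked by electrical field stimulation after compound addition; IC50 from 440 nm-normalized FRET ratios.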

human Nav1.7 channels = molecular target: T2, human Nav1.7 channels (Homo sapiens, UniProt Q15858); experiment: FRET assay, human Nav1.7 (EFS on FDSS); format: cell-based; settings: CHO cells expressing human Nav1.7, read-out: IC50 against Nav1.7
T2 construct: expressed in transfected cells; host or cells: CHO
Summary of the method: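 IC50 was derived from normalized 440 nm fluorescence ratios of the EFS-evoked membrane-potential response read on FDSS. Recombinant CHO cells were sequentially dye-loaded with coumarin/oxonol FRET pair at room temperature in pH 7.4 buffer before compound addition.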

T2 sequence (Q15858 whole entry): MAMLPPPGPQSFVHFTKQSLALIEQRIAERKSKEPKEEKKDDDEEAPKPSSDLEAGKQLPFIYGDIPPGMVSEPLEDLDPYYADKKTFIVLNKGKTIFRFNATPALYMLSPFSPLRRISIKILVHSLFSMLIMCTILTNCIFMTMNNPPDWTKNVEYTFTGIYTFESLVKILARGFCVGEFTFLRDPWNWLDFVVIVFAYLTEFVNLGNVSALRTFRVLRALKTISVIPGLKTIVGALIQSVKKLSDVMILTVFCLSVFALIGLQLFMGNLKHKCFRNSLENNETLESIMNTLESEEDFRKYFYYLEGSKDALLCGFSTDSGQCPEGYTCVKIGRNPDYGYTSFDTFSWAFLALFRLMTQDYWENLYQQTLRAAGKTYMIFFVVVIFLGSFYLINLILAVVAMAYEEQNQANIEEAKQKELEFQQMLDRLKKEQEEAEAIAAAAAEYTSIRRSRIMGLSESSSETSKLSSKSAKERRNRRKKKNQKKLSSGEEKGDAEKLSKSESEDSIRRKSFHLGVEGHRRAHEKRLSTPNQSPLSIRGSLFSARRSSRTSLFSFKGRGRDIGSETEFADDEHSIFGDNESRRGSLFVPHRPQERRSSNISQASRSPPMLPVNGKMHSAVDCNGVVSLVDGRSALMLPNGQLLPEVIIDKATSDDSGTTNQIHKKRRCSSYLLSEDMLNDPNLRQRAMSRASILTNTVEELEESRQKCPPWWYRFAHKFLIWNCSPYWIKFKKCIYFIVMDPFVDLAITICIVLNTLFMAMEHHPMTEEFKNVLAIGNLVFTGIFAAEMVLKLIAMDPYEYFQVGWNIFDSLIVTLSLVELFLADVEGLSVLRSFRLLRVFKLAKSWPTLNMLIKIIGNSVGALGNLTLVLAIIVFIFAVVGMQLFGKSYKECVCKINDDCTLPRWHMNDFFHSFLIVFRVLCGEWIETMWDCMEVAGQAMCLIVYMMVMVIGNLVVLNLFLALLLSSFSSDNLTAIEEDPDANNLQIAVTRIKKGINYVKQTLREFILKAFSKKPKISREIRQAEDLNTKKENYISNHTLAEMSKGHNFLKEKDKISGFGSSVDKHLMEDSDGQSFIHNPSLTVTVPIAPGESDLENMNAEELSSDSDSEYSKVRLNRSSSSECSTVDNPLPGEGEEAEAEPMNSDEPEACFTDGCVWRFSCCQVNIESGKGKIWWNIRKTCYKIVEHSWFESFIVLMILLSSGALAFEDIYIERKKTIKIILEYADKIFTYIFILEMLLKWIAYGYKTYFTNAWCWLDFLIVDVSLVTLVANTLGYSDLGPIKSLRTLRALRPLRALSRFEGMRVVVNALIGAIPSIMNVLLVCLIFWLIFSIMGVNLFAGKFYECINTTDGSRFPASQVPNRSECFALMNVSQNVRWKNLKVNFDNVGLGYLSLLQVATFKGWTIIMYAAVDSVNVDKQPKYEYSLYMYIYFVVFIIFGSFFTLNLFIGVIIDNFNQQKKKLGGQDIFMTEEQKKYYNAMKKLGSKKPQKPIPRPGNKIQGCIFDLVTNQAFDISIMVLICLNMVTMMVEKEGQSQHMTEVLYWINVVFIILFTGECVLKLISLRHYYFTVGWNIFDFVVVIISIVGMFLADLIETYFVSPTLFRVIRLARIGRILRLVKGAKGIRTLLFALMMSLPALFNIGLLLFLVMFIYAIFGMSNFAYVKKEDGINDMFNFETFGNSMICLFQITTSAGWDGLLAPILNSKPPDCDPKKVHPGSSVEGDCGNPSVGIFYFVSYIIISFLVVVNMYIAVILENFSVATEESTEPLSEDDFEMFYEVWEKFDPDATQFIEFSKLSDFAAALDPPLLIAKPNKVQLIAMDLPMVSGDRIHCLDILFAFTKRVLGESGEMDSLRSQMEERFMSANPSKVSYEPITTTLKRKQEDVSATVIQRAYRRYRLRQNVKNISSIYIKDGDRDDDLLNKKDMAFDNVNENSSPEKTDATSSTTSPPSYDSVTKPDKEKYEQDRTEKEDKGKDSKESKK
T1 sequence (Q9NY46 whole entry): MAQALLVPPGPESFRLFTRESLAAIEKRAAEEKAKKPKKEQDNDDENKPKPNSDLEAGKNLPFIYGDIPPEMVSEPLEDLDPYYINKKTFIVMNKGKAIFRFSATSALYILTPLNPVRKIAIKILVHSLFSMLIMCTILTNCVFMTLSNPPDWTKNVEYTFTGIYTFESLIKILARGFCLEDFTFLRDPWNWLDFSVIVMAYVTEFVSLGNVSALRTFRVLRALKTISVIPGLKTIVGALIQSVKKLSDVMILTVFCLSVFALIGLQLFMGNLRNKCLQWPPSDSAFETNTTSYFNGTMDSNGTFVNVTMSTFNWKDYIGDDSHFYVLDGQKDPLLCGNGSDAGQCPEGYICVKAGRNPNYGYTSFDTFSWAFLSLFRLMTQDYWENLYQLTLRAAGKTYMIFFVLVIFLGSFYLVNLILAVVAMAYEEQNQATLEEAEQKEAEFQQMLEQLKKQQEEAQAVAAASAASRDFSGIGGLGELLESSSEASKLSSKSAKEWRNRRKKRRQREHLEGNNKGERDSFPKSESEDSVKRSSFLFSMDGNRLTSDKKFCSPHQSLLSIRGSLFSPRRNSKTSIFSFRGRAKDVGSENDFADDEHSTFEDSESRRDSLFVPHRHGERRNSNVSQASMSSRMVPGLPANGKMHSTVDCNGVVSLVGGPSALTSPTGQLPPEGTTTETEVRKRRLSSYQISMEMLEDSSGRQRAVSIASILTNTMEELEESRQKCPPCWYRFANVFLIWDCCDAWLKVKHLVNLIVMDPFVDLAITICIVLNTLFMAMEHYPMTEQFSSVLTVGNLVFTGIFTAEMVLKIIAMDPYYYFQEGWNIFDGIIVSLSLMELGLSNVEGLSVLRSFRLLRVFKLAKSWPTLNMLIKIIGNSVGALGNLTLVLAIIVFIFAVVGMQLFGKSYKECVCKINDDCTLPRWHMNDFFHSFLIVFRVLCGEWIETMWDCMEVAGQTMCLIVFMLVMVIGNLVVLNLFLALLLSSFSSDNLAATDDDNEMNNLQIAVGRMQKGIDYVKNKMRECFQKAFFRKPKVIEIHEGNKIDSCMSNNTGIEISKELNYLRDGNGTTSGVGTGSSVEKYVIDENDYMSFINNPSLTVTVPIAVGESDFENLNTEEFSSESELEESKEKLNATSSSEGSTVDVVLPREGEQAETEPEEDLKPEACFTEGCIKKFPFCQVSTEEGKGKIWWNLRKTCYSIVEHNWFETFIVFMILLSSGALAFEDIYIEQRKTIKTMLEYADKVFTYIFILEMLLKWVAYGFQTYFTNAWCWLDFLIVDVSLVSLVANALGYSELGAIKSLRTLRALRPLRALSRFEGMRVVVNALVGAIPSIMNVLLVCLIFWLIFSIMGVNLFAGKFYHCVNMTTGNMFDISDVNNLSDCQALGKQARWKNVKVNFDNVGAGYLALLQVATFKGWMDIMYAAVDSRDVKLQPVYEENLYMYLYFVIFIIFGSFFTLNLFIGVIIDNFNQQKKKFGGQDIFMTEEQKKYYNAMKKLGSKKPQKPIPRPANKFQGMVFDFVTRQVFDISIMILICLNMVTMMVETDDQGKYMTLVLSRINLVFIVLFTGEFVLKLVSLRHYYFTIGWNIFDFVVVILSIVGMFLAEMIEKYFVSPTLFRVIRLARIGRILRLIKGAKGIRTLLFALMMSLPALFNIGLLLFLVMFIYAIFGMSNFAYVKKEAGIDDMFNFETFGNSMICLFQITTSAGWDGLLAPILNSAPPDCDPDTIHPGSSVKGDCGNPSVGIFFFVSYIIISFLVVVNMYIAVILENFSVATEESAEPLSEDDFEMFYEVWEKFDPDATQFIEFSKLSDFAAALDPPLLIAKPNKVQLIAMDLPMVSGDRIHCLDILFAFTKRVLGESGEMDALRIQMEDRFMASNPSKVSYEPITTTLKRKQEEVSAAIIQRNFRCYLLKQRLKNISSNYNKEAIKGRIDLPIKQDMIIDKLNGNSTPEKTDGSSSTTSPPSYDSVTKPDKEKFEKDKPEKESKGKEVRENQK

| Compound | IC50 (human Nav1.3 channels) [µM] | IC50 (human Nav1.7 channels) [µM] |
| --- | --- | --- |
| Cc1cc(C(=O)NCc2ccc(OCC(F)(F)F)c(C)c2)nc(NC(=O)C2CC2)n1 [Example 780, 2-(cyclopropanecarboxamido)-6-methyl-N-(3-methyl-4-(2,2,2-trifluoroethoxy)benzyl)pyrimidine-4-carboxamide] | < 1 | < 1 |
| CC(=O)Nc1cc(C(=O)NCc2ccc(OCC(F)(F)F)c(C)c2)ccn1 [Example 788, 2-acetamido-N-(3-methyl-4-(2,2,2-trifluoroethoxy)benzyl)isonicotinamide] | < 1 | < 1 |
| CCC(=O)Nc1cc(C(=O)NCc2ccc(OCC(F)(F)F)c(C)c2)ccn1 [Example 789, N-(3-methyl-4-(2,2,2-trifluoroethoxy)benzyl)-2-propionamidoisonicotinamide] | < 1 | < 1 |
| Cc1cc(CNC(=O)c2ccnc(NC(=O)C3CC3)c2)ccc1OCC(F)(F)F [Example 790, 2-(cyclopropanecarboxamido)-N-(3-methyl-4-(2,2,2-trifluoroethoxy)benzyl)isonicotinamide] | < 1 | < 1 |
| Cc1cc(CNC(=O)c2ccnc(NC(=O)C(C)C)c2)ccc1OCC(F)(F)F [Example 791, 2-isobutyramido-N-(3-methyl-4-(2,2,2-trifluoroethoxy)benzyl)isonicotinamide] | < 1 | < 1 |
| CC(=O)Nc1cc(C(=O)NCc2ccc(OCC(F)(F)F)c(C)c2)cc(C)n1 [Example 792, 2-acetamido-6-methyl-N-(3-methyl-4-(2,2,2-trifluoroethoxy)benzyl)isonicotinamide] | < 1 | < 1 |
| CCC(=O)Nc1cc(C(=O)NCc2ccc(OCC(F)(F)F)c(C)c2)cc(C)n1 [Example 793, 2-methyl-N-(3-methyl-4-(2,2,2-trifluoroethoxy)benzyl)-6-propionamidoisonicotinamide] | < 1 | < 1 |
| Cc1cc(C(=O)NCc2ccc(OCC(F)(F)F)c(C)c2)cc(NC(=O)C(C)C)n1 [Example 794, 2-isobutyramido-6-methyl-N-(3-methyl-4-(2,2,2-trifluoroethoxy)benzyl)isonicotinamide] | < 1 | < 1 |
| CC(=O)Nc1cc(C(=O)NCc2ccc(OC(F)(F)F)c(C)c2)ccn1 [Example 804, 2-acetamido-N-(3-methyl-4-(trifluoromethoxy)benzyl)isonicotinamide] | < 1 | < 1 |
| CCC(=O)Nc1cc(C(=O)NCc2ccc(OC(F)(F)F)c(C)c2)ccn1 [Example 805, N-(3-methyl-4-(trifluoromethoxy)benzyl)-2-propionamidoisonicotinamide] | < 1 | < 1 |
| Cc1cc(CNC(=O)c2ccnc(NC(=O)C3CC3)c2)ccc1OC(F)(F)F [Example 806, 2-(cyclopropanecarboxamido)-N-(3-methyl-4-(trifluoromethoxy)benzyl)isonicotinamide] | < 1 | < 1 |
| Cc1cc(CNC(=O)c2ccnc(NC(=O)C(C)C)c2)ccc1OC(F)(F)F [Example 807, 2-isobutyramido-N-(3-methyl-4-(trifluoromethoxy)benzyl)isonicotinamide] | < 1 | < 1 |
| CC(=O)Nc1cc(C(=O)NCc2ccc(OC(F)(F)F)c(C)c2)cc(C)n1 [Example 808, 2-acetamido-6-methyl-N-(3-methyl-4-(trifluoromethoxy)benzyl)isonicotinamide] | < 1 | < 1 |
| Cc1cc(C(=O)NCc2ccc(OC(F)(F)F)c(C)c2)cc(NC(=O)C(C)C)n1 [Example 809, 2-isobutyramido-6-methyl-N-(3-methyl-4-(trifluoromethoxy)benzyl)isonicotinamide] | < 1 | < 1 |
| Cc1cc(CNC(=O)c2ccnc(NC(=O)C3CC3)n2)ccc1OC(F)(F)F [Example 810, 2-(cyclopropanecarboxamido)-N-(3-methyl-4-(trifluoromethoxy)benzyl)pyrimidine-4-carboxamide] | < 1 | < 1 |
| Cc1cc(C(=O)NCc2ccc(OC(F)(F)F)c(C)c2)nc(NC(=O)C2CC2)n1 [Example 811, 2-(cyclopropanecarboxamido)-6-methyl-N-(3-methyl-4-(trifluoromethoxy)benzyl)pyrimidine-4-carboxamide] | < 1 | < 1 |
| CC(=O)Nc1cc(C(=O)NCc2cccc(C(F)(F)F)c2C)cc(C)n1 [Example 815, 2-acetamido-6-methyl-N-(2-methyl-3-(trifluoromethyl)benzyl)isonicotinamide] | < 1 | < 1 |

| Compound | IC50 (human Nav1.3 channels) [µM] | IC50 (human Nav1.7 channels) [µM] |
| --- | --- | --- |
| Cc1c(CNC(=O)c2ccnc(NC(=O)C(C)C)c2)cccc1C(F)(F)F [Example 816, 2-isobutyramido-N-(2-methyl-3-(trifluoromethyl)benzyl)isonicotinamide] | < 1 | < 1 |
| Cc1cc(C(=O)NCc2cnc(OCC(F)(F)F)c(C)c2)cc(NC(=O)C2CC2)n1 [Example 824, 2-(cyclopropanecarboxamido)-6-methyl-N-((5-methyl-6-(2,2,2-trifluoroethoxy)pyridin-3-yl)methyl)isonicotinamide] | < 1 | < 1 |
| CCc1cc(CNC(=O)c2cc(C)nc(NC(=O)C3CC3)c2)cnc1OCC(F)(F)F [Example 825, 2-(cyclopropanecarboxamido)-N-((5-ethyl-6-(2,2,2-trifluoroethoxy)pyridin-3-yl)methyl)-6-methylisonicotinamide] | < 1 | < 1 |
| Cc1cc(C(=O)NCc2ccc(OCC(F)(F)F)c(C)c2)cc(NC(=O)C2CC2)n1 [Example 831, 2-(cyclopropanecarboxamido)-6-methyl-N-(3-methyl-4-(2,2,2-trifluoroethoxy)benzyl)isonicotinamide] | < 1 | < 1 |
| Cc1cc(C(=O)NCc2cccc(OC(F)(F)F)c2)cc(NC(=O)C2CC2)n1 [Example 836, 2-(cyclopropanecarboxamido)-6-methyl-N-(3-(trifluoromethoxy)benzyl)isonicotinamide] | < 1 | < 1 |
| COc1c(CNC(=O)c2cc(C)nc(NC(=O)C(C)C)c2)cccc1C(F)(F)F [Example 880, 2-isobutyramido-N-(2-methoxy-3-(trifluoromethyl)benzyl)-6-methylisonicotinamide] | < 1 | < 1 |
| CCC(=O)Nc1cc(C(=O)NCc2cnc(OCC(F)(F)F)c(Br)c2)ccn1 [Example 895, N-((5-bromo-6-(2,2,2-trifluoroethoxy)pyridin-3-yl)methyl)-2-propionamidoisonicotinamide] | < 1 | < 1 |
| O=C(NCc1cnc(OCC(F)(F)F)c(Br)c1)c1ccnc(NC(=O)C2CC2)c1 [Example 896, N-((5-bromo-6-(2,2,2-trifluoroethoxy)pyridin-3-yl)methyl)-2-(cyclopropanecarboxamido)isonicotinamide] | < 1 | < 1 |
| O=C(NCc1cnc(OCC(F)(F)F)c(Br)c1)c1ccnc(NC(=O)C2CC2)n1 [Example 898, N-((5-bromo-6-(2,2,2-trifluoroethoxy)pyridin-3-yl)methyl)-2-(cyclopropanecarboxamido)pyrimidine-4-carboxamide] | < 1 | < 1 |
| CC(=O)Nc1cc(C(=O)NCc2cnc(OCC(F)(F)F)c(Br)c2)cc(C)n1 [Example 899, 2-acetamido-N-((5-bromo-6-(2,2,2-trifluoroethoxy)pyridin-3-yl)methyl)-6-methylisonicotinamide] | < 1 | < 1 |
| Cc1cc(C(=O)NCc2cnc(OCC(F)(F)F)c(Br)c2)nc(NC(=O)C2CC2)n1 [Example 902, N-((5-bromo-6-(2,2,2-trifluoroethoxy)pyridin-3-yl)methyl)-2-(cyclopropanecarboxamido)-6-methylpyrimidine-4-carboxamide] | < 1 | < 1 |
| CCc1cc(CNC(=O)c2cc(C)nc(NC(=O)C(C)C)c2)cnc1OCC(F)F [Example 911, N-((6-(2,2-difluoroethoxy)-5-ethylpyridin-3-yl)methyl)-2-isobutyramido-6-methylisonicotinamide] | < 1 | < 1 |
| CCC(=O)Nc1cc(C(=O)NCc2cnc(OCC(F)F)c(CC)c2)ccn1 [Example 930, N-((6-(2,2-difluoroethoxy)-5-ethylpyridin-3-yl)methyl)-2-propionamidoisonicotinamide] | < 1 | < 1 |
| CC(=O)Nc1cc(C(=O)NCc2cnc(OCC(F)(F)C(F)F)c(C)c2)ccn1 [Example 939, 2-acetamido-N-((5-methyl-6-(2,2,3,3-tetrafluoropropoxy)pyridin-3-yl)methyl)isonicotinamide] | < 1 | < 1 |
| CCC(=O)Nc1cc(C(=O)NCc2cnc(OCC(F)(F)C(F)F)c(C)c2)ccn1 [Example 940, N-((5-methyl-6-(2,2,3,3-tetrafluoropropoxy)pyridin-3-yl)methyl)-2-propionamidoisonicotinamide] | < 1 | < 1 |
| Cc1cc(CNC(=O)c2ccnc(NC(=O)C(C)C)c2)cnc1OCC(F)(F)C(F)F [Example 941, 2-isobutyramido-N-((5-methyl-6-(2,2,3,3-tetrafluoropropoxy)pyridin-3-yl)methyl)isonicotinamide] | < 1 | < 1 |
| Cc1cc(CNC(=O)c2ccnc(NC(=O)C3CC3)c2)cnc1OCC(F)(F)C(F)F [Example 942, 2-(cyclopropanecarboxamido)-N-((5-methyl-6-(2,2,3,3-tetrafluoropropoxy)pyridin-3-yl)methyl)isonicotinamide] | < 1 | < 1 |
